Where two headings read alike, the source gives them in different places.
Columns and labels:
Assay in all cases: Kinase selectivity, P33-radiolabeled assay
Assay type in all cases: biochemical
Conditions in all cases: 10 μM ATP
Aurora C = target: T1, Aurora C (Homo sapiens, UniProt Q9UQB9)
T1 construct: purchased Reaction Biology Corp
T1 sequence (Q9UQB9 1-309): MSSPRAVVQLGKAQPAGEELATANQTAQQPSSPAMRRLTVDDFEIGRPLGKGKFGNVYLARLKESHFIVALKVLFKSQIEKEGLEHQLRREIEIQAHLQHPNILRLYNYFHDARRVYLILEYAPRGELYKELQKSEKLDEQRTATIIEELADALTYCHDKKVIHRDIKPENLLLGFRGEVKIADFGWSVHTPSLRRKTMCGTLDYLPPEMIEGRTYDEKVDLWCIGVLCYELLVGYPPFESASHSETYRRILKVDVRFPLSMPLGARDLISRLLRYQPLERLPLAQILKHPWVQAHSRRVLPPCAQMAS
How it was run: (§1)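 Duplicate single-concentration testing used 10 μM compound. The ATP concentration was also 10 μM.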

FYN = target: T2, FYN (Homo sapiens, UniProt P06241)
T2 construct: purchased Reaction Biology Corp
How it was run: as §1

MYO3b = target: T3, MYO3b (Homo sapiens, UniProt Q8WXR4)
T3 construct: purchased Reaction Biology Corp
T3 sequence (Q8WXR4 1-1341): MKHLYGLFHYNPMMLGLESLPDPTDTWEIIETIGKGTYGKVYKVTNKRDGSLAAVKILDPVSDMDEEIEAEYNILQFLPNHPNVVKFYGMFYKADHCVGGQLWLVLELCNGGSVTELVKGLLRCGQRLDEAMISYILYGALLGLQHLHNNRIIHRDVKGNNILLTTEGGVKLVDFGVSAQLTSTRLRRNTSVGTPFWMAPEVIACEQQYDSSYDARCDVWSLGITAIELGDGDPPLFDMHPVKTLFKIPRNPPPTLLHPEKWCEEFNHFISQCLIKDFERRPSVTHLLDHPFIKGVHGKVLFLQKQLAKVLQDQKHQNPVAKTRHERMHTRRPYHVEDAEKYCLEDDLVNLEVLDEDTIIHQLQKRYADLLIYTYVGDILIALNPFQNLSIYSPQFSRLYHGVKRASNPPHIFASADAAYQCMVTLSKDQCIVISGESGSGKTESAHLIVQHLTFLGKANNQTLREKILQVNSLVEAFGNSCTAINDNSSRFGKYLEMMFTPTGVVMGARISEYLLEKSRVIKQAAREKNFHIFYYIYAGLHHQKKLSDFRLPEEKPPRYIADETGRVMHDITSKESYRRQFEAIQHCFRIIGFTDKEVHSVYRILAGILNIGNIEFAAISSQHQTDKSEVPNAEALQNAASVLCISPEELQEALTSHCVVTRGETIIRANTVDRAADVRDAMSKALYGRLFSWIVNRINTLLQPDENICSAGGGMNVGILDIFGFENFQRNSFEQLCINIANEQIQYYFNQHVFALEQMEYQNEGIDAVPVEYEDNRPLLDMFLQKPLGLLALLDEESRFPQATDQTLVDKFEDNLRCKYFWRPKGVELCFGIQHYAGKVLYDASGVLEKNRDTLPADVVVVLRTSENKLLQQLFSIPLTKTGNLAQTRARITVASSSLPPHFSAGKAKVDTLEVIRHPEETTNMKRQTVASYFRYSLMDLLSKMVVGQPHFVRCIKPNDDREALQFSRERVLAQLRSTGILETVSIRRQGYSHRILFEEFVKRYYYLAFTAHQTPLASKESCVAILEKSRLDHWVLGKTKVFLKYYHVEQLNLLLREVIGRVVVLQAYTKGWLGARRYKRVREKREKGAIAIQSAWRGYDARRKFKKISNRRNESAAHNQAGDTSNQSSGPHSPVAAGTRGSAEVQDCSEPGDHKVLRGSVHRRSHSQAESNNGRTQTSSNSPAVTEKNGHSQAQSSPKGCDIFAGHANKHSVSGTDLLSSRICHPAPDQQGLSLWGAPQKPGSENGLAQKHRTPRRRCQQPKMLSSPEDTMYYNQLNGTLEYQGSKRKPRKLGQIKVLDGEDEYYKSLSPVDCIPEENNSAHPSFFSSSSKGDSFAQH
How it was run: as §1

PKN1/PRK1 = target: T4, PKN1/PRK1 (Homo sapiens, UniProt Q16512)
T4 construct: purchased Reaction Biology Corp
How it was run: as §1

TAOK1 = target: T5, TAOK1 (Homo sapiens, UniProt Q7L7X3)
T5 construct: purchased Reaction Biology Corp
T5 sequence (Q7L7X3 1-1001): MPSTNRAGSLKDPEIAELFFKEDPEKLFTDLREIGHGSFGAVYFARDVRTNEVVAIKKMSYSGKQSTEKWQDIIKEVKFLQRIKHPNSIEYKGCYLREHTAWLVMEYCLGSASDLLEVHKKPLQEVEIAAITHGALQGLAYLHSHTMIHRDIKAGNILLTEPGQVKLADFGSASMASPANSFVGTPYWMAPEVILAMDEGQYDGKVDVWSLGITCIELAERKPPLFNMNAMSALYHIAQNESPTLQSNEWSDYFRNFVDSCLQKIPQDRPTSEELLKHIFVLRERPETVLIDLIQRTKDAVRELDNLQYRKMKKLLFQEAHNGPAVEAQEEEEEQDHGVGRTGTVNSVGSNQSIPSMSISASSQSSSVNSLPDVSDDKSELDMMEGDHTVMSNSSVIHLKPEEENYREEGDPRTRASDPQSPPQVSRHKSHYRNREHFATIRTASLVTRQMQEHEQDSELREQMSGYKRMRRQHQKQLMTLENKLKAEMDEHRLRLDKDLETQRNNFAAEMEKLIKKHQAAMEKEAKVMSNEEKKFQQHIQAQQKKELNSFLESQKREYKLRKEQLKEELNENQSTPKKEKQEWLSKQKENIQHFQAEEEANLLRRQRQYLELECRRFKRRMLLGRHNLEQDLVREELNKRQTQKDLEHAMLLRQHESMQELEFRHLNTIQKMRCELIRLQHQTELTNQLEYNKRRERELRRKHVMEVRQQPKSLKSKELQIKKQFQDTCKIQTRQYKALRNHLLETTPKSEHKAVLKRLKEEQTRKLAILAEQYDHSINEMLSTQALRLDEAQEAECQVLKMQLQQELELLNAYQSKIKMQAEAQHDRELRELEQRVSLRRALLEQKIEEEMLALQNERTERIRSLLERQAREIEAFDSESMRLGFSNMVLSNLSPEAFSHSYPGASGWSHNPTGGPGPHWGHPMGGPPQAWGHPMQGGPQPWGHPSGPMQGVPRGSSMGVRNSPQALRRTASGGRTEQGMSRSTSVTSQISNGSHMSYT
How it was run: as §1

[1] = read-out: % Enzyme Activity (relative to DMSO controls) AVG
[2] = read-out: % Enzyme Activity (relative to DMSO controls) Data 1
[3] = read-out: % Enzyme Activity (relative to DMSO controls) Data 2

T2 sequence (P06241 whole entry): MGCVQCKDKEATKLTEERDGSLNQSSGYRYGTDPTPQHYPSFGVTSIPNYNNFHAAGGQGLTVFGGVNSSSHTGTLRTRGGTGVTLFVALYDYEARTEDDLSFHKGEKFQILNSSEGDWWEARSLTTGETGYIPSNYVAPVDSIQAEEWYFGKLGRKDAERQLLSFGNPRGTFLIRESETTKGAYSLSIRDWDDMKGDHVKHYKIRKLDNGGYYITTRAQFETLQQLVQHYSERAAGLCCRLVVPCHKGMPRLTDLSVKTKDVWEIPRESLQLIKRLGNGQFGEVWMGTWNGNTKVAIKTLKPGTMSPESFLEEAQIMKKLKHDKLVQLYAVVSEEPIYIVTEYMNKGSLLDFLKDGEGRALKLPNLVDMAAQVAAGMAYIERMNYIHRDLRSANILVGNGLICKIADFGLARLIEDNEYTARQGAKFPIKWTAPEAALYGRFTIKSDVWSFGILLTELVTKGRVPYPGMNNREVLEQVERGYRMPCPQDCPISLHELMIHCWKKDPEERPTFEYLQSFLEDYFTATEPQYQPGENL
T4 sequence (Q16512 whole entry): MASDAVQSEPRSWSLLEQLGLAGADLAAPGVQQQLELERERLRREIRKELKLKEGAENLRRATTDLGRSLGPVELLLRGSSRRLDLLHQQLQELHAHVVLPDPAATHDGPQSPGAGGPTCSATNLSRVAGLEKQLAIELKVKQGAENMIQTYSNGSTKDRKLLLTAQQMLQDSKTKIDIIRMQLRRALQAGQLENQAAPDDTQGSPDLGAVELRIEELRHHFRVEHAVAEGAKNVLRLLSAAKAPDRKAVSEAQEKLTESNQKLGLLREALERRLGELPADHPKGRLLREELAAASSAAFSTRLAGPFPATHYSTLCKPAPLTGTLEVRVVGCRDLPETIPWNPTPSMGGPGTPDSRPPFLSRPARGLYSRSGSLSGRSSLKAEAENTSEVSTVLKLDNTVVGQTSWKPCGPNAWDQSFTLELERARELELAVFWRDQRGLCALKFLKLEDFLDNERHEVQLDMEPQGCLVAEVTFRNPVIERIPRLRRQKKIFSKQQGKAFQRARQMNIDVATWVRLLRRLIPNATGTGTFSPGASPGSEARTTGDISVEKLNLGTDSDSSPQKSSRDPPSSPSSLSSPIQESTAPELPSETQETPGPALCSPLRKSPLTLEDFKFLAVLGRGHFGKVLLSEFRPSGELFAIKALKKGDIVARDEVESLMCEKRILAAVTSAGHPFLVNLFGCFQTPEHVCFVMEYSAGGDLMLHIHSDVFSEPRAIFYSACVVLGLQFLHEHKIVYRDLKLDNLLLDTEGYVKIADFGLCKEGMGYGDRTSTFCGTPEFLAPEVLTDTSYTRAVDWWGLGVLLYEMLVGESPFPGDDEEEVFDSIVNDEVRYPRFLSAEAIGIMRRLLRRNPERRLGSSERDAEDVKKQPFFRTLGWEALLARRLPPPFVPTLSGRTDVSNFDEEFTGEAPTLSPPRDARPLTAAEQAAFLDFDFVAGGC

In the case of `CC(C)(C)C(=O)N1N=CC[C@H]1c1ccccc1` [GSK′963], the remaining activity at 10 µM (Aurora C; [1]) is reported as 96.9%, the remaining activity at 10 µM (Aurora C; [2]) is reported as 98.4% and the remaining activity at 10 µM (Aurora C; [3]) is reported as 95.5%. It also gave a remaining activity at 10 µM (FYN; [1]) of 106%, a remaining activity at 10 µM (FYN; [2]) of 104% and a remaining activity at 10 µM (FYN; [3]) of 107%. For the same compound, the remaining activity at 10 µM (MYO3b; [1]) was 111%, the remaining activity at 10 µM (MYO3b; [2]) was 111% and the remaining activity at 10 µM (MYO3b; [3]) was 111%. The remaining activity at 10 µM (PKN1/PRK1; [1]) was 103%, the remaining activity at 10 µM (PKN1/PRK1; [2]) was 104% and the remaining activity at 10 µM (PKN1/PRK1; [3]) was 102%. For the same compound, the remaining activity at 10 µM (TAOK1; [1]) was 99.3%, the remaining activity at 10 µM (TAOK1; [2]) was 101% and the remaining activity at 10 µM (TAOK1; [3]) was 97.8%.
